pIC50: −log10 of the molar value. Where two headings read alike, the source gives them in different places.
What was measured:
SU-DHL6 = SU-DHL6 viability, CTG; type: cell-based; settings: Homo sapiens, SU-DHL-6
OCI-LY3 = OCI-LY3 viability, CTG; type: cell-based; settings: Homo sapiens, MYD88 MUT
[1] = test system: cytokines induced by TLR stimuli; experiment: Human whole blood cytokine release assays; type: cell-based; settings: compared with IRAK4 inhibition with PF-06550833, FIG. 16
Experimental: Fresh human whole blood was collected in Na Heparin tubes and received from […] same day as collection. 200 uL of whole blood was aliquoted per well into a 96 well plate. Whole blood was pre-incubated with compounds overnight at 37° C., 5% CO2. Following compound incubation, samples were stimulated with […] (invivogen #tlrl-r848), LPS 10 ng/mL (Sigma #L2637) or IL-1β 25 ng/mL (R&D systems 201-LB) and incubated for an additional 5 hours. At the end of the assay, blood was spun down for 15 min at 4° C. and plasma was collected and immediately stored at −80° C. Cytokine and chemokine levels were measured by custom ordered U-plex MSD panels (panel 1: IFNy, IL-10, IL-1β, IL-6, IL-8, TNFα) and (panel 2: IP-10, MIP1-α, MIP-1β, IL-12/IL-23p40, GROα).

IRAK4 [2] = molecular target: T1, IRAK4 (Homo sapiens (Human), UniProt Q9NWZ3); experiment: IRAK4 degradation in OCI-LY10 (DC50); type: cell-based
T1 sequence (Q9NWZ3 whole entry): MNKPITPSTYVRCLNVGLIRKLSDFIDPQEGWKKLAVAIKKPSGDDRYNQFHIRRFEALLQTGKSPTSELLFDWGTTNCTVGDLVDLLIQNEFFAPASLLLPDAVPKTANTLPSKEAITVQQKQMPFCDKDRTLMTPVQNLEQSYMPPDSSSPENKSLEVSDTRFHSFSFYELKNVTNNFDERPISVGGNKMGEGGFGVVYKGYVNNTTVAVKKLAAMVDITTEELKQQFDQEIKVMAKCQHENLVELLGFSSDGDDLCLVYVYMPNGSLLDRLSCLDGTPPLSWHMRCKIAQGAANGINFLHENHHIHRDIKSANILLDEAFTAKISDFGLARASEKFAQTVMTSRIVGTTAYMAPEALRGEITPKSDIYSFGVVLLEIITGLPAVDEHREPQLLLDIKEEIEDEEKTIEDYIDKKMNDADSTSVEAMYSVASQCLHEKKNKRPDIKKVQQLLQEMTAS

IRAK4 [3] = molecular target: T1, IRAK4; experiment: Deep tandem mass tag (TMT) proteomics in OCI-LY10; type: cell-based; settings: OCI-LY10, 8 hours
Experimental: Total protein was isolated from OCI-LY10 cells treated with 10 nM I-30, 30 nM I-30 and 30 nM 2-{2-[(cyclopropylmethyl)amino]pyridin-4-yl}-N-[3-(difluoromethyl)-1-[4-({[2-(2-{3-[3-methyl-1-(1-methyl-2,6-dioxopiperidin-3-yl)-2-oxo-2,3-dihydro-1H-1,3-benzodiazol-4-yl]propoxy}ethoxy)ethyl]amino}methyl)phenyl]-1H-pyrazol-4-yl]-1,3-oxazole-4-carboxamide for 8 hours. Vehicle (DMSO)-treated cells were used as controls. Protein lysates, 2 biological replicates per condition, were prepared at 4 C in 8M urea, 75 mM NaCl, 1 mM EDTA in 50 mM Tris HCl (pH 8), 10 mM NaF, phosphatase inhibitor cocktail 2 (1:100; Sigma, P5726) and cocktail 3 (1:100; Sigma, P0044), 2 μg/mL aprotinin (Sigma, A6103), 10 μg/mL Leupeptin (Roche, 11017101001), and 1 mM PMSF (Sigma, 78830). Lysates were spun at 20,000 rcf for 10 min and supernatant (containing extracted proteins) was transferred to a clean microcentrifuge tube. Protein concentrations were determined using the Pierce BCA assay. […] Online fractionation was performed using a nanoflow Proxeon EASY-nLC 1200 UHPLC system (Thermo Fisher Scientific) and separated peptides were analyzed on a benchtop Orbitrap Q Exactive plus mass spectrometer (Thermo Fisher Scientific). All data were analyzed using Spectrum Mill software package (Agilent Technologies). […] In total, 10,992 proteins were quantified. […]

OCI-LY10 = experiment: CTG Cell Viability Assay - OCI-LY10; type: cell-based, human
Summary of the method: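 Viability read by CellTiter-Glo luminescence after 4 days at 37° C under 5% CO2 with compound (top 10 μM final, 1:3 steps, 9 doses, DMSO 0.2%). Three-parameter logistic fit gave IC50.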

Row | SMILES | pIC50 (SU-DHL6; MYD88 WT Lines, read-out: SU-DHL6 Viability, CTG IC50) | pIC50 (SU-DHL6; MYD88 WT, read-out: SU-DHL6 CTG IC50) | pIC50 (OCI-LY3) | range of cytokines inhibited, induced by different TLR stimuli [1] | DC50 (IRAK4 [2]; read-out: IRAK4 Degradation in OCI-LY10, DC50) [nM] | DC50 (IRAK4 [2]; read-out: IRAK4 OCI-LY10 DC50) [nM] | selectivity for IRAK4 vs. other proteins in OCI-LY10 (proteomics) (IRAK4 [3]) | cytotoxicity in OCI-LY10 lymphoma line (OCI-LY10; FIG. 5) | pIC50 (OCI-LY10; Homo sapiens, OCI-Ly10, 96 h, OCI-LY10, 4 days, read-out: CTG Cell Viability Assay - OCI-LY10: Average external-IC50)
1 | CN(C[C@H]1CC[C@H](n2cc(NC(=O)c3coc(-c4ccnc(NCC5CC5)c4)n3)c(C(F)F)n2)CC1)C1CCN(Cc2cccc3c2n(C)c(=O)n3C2CCC(=O)NC2=O)CC1 (stereo partly drawn) [I-75, 2-(2-((cyclopropylmethyl)amino)pyridin-4-yl)-N-(3-(difluoromethyl)-1-((1r,4r)-4-(((1-((1-(2,6-dioxopiperidin-3-yl)-3-methyl-2-oxo-2,3-dihydro-1H-benzo[d]imidazol-4-yl)methyl)piperidin-4-yl)(methyl)amino)methyl)cyclohexyl)-1H-pyrazol-4-yl)oxazole-4-carboxamide] | 5.80 | 5.80 | 6.74 | inhibits a broader range of cytokines | 8 | 8 | – | – | –
2 | CN(CCCOCCCc1cccc2c1n(C)c(=O)n2C1CCC(=O)NC1=O)C[C@H]1CC[C@H](n2cc(NC(=O)c3coc(-c4ccnc(NCC5CC5)c4)n3)c(C(F)F)n2)CC1 (mixture of isomers) [I-30, 2-[2-(Cyclopropylmethylamino)-4-pyridyl]-N-[3-(difluoromethyl)-1-[4-[[3-[3-[1-(2,6-dioxo-3-piperidyl)-3-methyl-2-oxo-benzimidazol-4-yl]propoxy]propyl-methyl-amino]methyl]cyclohexyl]pyrazol-4-yl] oxazole-4-carboxamide] | – | – | – | – | – | – | highly selective for IRAK4 vs. >10,000 other proteins | cytotoxic | 6.30 to 7.00

Reference: patent US11352350B2, “IRAK degraders and uses thereof” (Kymera Therapeutics, Inc., priority 2018, dated 2022)
